Several values for one entry are separate records, joined by “and”; a condition that tells them apart may be missing. Identical values can stand only once. Numbers after ± are expanded uncertainties.
Conditions: Liquid

## CCOC(=O)c1ccccc1C(=O)OCC [diethyl phthalate]
303.19 K, Calculated from knudsen effusion weight loss
  vapor or sublimation pressure: 0.000165 ± 1e-05 kPa
307.62 K, Calculated from knudsen effusion weight loss
  vapor or sublimation pressure: 0.00026 ± 1.6e-05 kPa
308.1 K, Calculated from knudsen effusion weight loss
  vapor or sublimation pressure: 0.000271 ± 1.7e-05 kPa
313.34 K, Calculated from knudsen effusion weight loss
  vapor or sublimation pressure: 0.000456 ± 2.8e-05 kPa
318.54 K, Calculated from knudsen effusion weight loss
  vapor or sublimation pressure: 0.000769 ± 4.7e-05 kPa
323.04 K, Calculated from knudsen effusion weight loss
  vapor or sublimation pressure: 0.00116 ± 0.0001 kPa
323.33 K, Calculated from knudsen effusion weight loss
  vapor or sublimation pressure: 0.001179 ± 0.00011 kPa
328.33 K, Calculated from knudsen effusion weight loss
  vapor or sublimation pressure: 0.001842 ± 0.00017 kPa
333.55 K, Calculated from knudsen effusion weight loss
  vapor or sublimation pressure: 0.002839 ± 0.00028 kPa
333.58 K, Calculated from knudsen effusion weight loss
  vapor or sublimation pressure: 0.002895 ± 0.00029 kPa
333.68 K, Calculated from knudsen effusion weight loss
  vapor or sublimation pressure: 0.00286 ± 0.00029 kPa
335.05 K, Closed cell (Static) method
  vapor or sublimation pressure: 0.0037 ± 0.00019 kPa
335.07 K, Closed cell (Static) method
  vapor or sublimation pressure: 0.0037 ± 0.00019 kPa
337.65 K, Calculated from knudsen effusion weight loss
  vapor or sublimation pressure: 0.003873 ± 0.0004 kPa
338.68 K, Calculated from knudsen effusion weight loss
  vapor or sublimation pressure: 0.004379 ± 0.00046 kPa
343.7 K, Calculated from knudsen effusion weight loss
  vapor or sublimation pressure: 0.006569 ± 0.00073 kPa
344.41 K, Closed cell (Static) method
  vapor or sublimation pressure: 0.0076 ± 0.00033 kPa
344.43 K, Closed cell (Static) method
  vapor or sublimation pressure: 0.0077 ± 0.00034 kPa
354.01 K, Closed cell (Static) method
  vapor or sublimation pressure: 0.0158 ± 0.0006 kPa
354.03 K, Closed cell (Static) method
  vapor or sublimation pressure: 0.0159 ± 0.0006 kPa
363.15 K, Closed cell (Static) method
  vapor or sublimation pressure: 0.0304 ± 0.0009 kPa
363.16 K, Closed cell (Static) method
  vapor or sublimation pressure: 0.0305 ± 0.0009 kPa
365.75 K, Closed cell (Static) method
  vapor or sublimation pressure: 0.036 ± 0.0011 kPa and 0.0359 ± 0.0011 kPa
365.77 K, Closed cell (Static) method
  vapor or sublimation pressure: 0.0363 ± 0.0011 kPa
375.29 K, Closed cell (Static) method
  vapor or sublimation pressure: 0.0671 ± 0.0018 kPa
375.31 K, Closed cell (Static) method
  vapor or sublimation pressure: 0.0671 ± 0.0018 kPa
384.96 K, Closed cell (Static) method
  vapor or sublimation pressure: 0.121 ± 0.003 kPa
394.42 K, Closed cell (Static) method
  vapor or sublimation pressure: 0.21 ± 0.005 kPa and 0.209 ± 0.005 kPa and 0.207 ± 0.005 kPa
394.43 K, Closed cell (Static) method
  vapor or sublimation pressure: 0.208 ± 0.005 kPa
394.47 K, Closed cell (Static) method
  vapor or sublimation pressure: 0.207 ± 0.005 kPa
403.73 K, Closed cell (Static) method
  vapor or sublimation pressure: 0.346 ± 0.008 kPa
403.77 K, Closed cell (Static) method
  vapor or sublimation pressure: 0.347 ± 0.008 kPa
404.25 K, Closed cell (Static) method
  vapor or sublimation pressure: 0.352 ± 0.008 kPa
404.27 K, Closed cell (Static) method
  vapor or sublimation pressure: 0.352 ± 0.008 kPa
413.4 K, Closed cell (Static) method
  vapor or sublimation pressure: 0.568 ± 0.012 kPa
413.43 K, Closed cell (Static) method
  vapor or sublimation pressure: 0.569 ± 0.012 kPa
414.26 K, Closed cell (Static) method
  vapor or sublimation pressure: 0.585 ± 0.013 kPa
414.27 K, Closed cell (Static) method
  vapor or sublimation pressure: 0.586 ± 0.013 kPa
424.06 K, Closed cell (Static) method
  vapor or sublimation pressure: 0.94 ± 0.02 kPa
424.09 K, Closed cell (Static) method
  vapor or sublimation pressure: 0.94 ± 0.02 kPa
479.25 K, Ebulliometric method (Recirculating still)
  vapor or sublimation pressure: 8.318 ± 0.012 kPa
487.77 K, Ebulliometric method (Recirculating still)
  vapor or sublimation pressure: 11.06 ± 0.014 kPa
494.93 K, Ebulliometric method (Recirculating still)
  vapor or sublimation pressure: 13.9 ± 0.017 kPa
501 K, Ebulliometric method (Recirculating still)
  vapor or sublimation pressure: 16.77 ± 0.019 kPa
507.32 K, Ebulliometric method (Recirculating still)
  vapor or sublimation pressure: 20.26 ± 0.023 kPa
513.93 K, Ebulliometric method (Recirculating still)
  vapor or sublimation pressure: 24.53 ± 0.027 kPa
520.32 K, Ebulliometric method (Recirculating still)
  vapor or sublimation pressure: 29.35 ± 0.032 kPa

Reference: the NIST ThermoML archive (doi:10.1016/j.jct.2004.07.025)
